PMC5818060 (Journal of Cell Science, 2018)
Ends that are not written are not given here. Peptide text beside a SMILES is read from it. * marks the point of attachment. Biotin = O=C1N[C@H]2[C@H](CS[C@H]2CCCCC(=O)*)N1

Assays:
His-DDX3X^414-582 [1] = molecular target: T1, His-DDX3X^414-582 (Homo sapiens, UniProt O00571); assay: Direct-binding ELISA of biotinylated CK1 peptides on coated His-DDX3X^414-582; details: 1 µg/well biotinylated peptide, 2.5 h, room temperature; HRP-streptavidin/ABTS, 405 nm; data normalized to δ-141 = 100%; n=3
T1 construct: contained 10 µM His-DDX3X^414-582; His; made in house; host or cells: E. coli Rosetta2 (pET28a)
Text: According to the amino acid sequences of the N-terminal and the kinase domain of human CK1δ (UniProt entry P48730), 30 CK1δ-derived peptides were generated. In order to investigate the effects of sequence-specific differences in the sequence of CK1ε (UniProt entry P49674) compared with CK1δ, seven additional CK1ε-derived peptides were generated (Fig. S2). Each peptide consists of 15 amino acids with the first and last five amino acids always overlapping the previous and the following peptide, respectively. At the N-terminus the peptides were coupled to biotin via a four amino acid spacer sequence (SGSG). For peptide position and sequence information see Fig. S2. All peptides were pre-dissolved in DMSO (final concentration of 12.5% DMSO in the peptide stock).
His-DDX3X^414-582 protein fragment was coated onto 96-well Nunc MaxiSorp plates (NUNC, Denmark) at a final concentration of 0.01 µg/µl in 100 mM sodium carbonate buffer (pH 9.6) at 4°C overnight. Unspecific binding sites were blocked with 5% FCS in PBS. Biotinylated CK1δ- and CK1ε-derived peptides (1 µg/well) were added and incubated for 2.5 h at room temperature. DMSO (0.35%) and water were used as negative controls. Detection of the bound biotinylated peptides was performed by incubation with HRP-streptavidin (1:8000 in 0.5% FCS in PBS). Finally, plates were incubated with ABTS detection reagent [50 mM potassium phosphate buffer, pH 5.7, 5% ABTS solution (1 mg/ml), 0.05% H2O2]. Absorption was measured at 405 nm after incubation for 40 min.

[2] = system: DDX3X-stimulated CK1ε (CK1εΔC); assay: In vitro radioactive kinase assay, DDX3X-stimulated CK1ε activity; format: biochemical, human; details: 0.3 µM peptide; recombinant DDX3X and CK1εΔC; CK1εΔC alone set to 1; n=3
Experimental: (§1) Kinase assays were carried out essentially as described ([Cruciat et al., 2013]). For kinase assays, full-length DDX3X protein was expressed and purified from HEK293T cells as described for the ATPase assay. Deletion constructs were purified from E. coli. The eluted proteins were visualized using Coomassie Blue and the intensity of the protein bands was measured using ImageJ. The amounts used for kinase assays were estimated based on this staining. Where indicated, dsRNA was premixed with proteins at room temperature (RT) for 15 min before subjecting samples to radioactive kinase assays. The CK1 substrate peptide […] for the kinase assay and samples was analyzed using p81 phosphocellulose (Biomol) as described ([Zhai et al., 1992]). 0.3 µM CK1δ/ε-derived and control peptides were used ([Schacherl et al., 2015]). For mass spectrometric analyses DDX3X helicase core (His-DDX3X^168-582) as well as the C-terminal helicase domain (His-DDX3X^414-582) were in vitro phosphorylated by CK1ε. Also, reactions without addition of kinase were performed and analyzed in order to correct for false-positive results. Mass spectrometry data acquisition and analysis of trypsin-digested samples were performed at the Core Unit Mass Spectrometry and Proteomics (Ulm University) essentially as described in [Meng et al. (2016)].

His-DDX3X^414-582 [3] = molecular target: T1, His-DDX3X^414-582; assay: Fluorescence thermal shift (FTS) assay; format: binding; details: 20 µM peptide, 10 µM His-DDX3X^414-582, 50 mM HEPES pH 8, SYPRO-Orange
Experimental: FTS reactions were performed in a total volume of 20 µl in 50 mM HEPES (pH 8) and contained 10 µM His-DDX3X^414-582, a final concentration of 20 µM of each indicated CK1δ- or CK1ε-derived peptide, as well as 10×SYPRO-Orange (Invitrogen). DMSO (0.35%) and water were used as controls. Measurements were performed in a LightCycler 480 device for real-time PCR (Roche) according to the manufacturer's instructions. Respective protein melting temperatures were calculated using the protein-melting evaluation software supplied by Roche.

[4] = system: endogenous CK1 / CK1 sensor in HEK293T cells; assay: CK1 FRET biosensor, microplate reader FRET/CFP ratio; format: cell-based, human; details: HEK293T with CK1 sensor; for effect of transfected peptide on FRET/CFP ratio (endogenous CK1 activity): peptide transfected (Metafectene), analyzed 1.5 h after peptide transfection, n=3; for size of reduction of CK1 biosensor activity relative to CK1-specific small-molecule inhibitors or DDX3X siRNA: transfected peptide
Experimental: HEK293T cells were seeded at a density of 20,000 cells/well on 96-well black microplates (PS, μClear, clear bottom, chimney well, Greiner No. 655090). Transfection was performed as described above. Unless indicated otherwise, the respective cell populations were transfected with 50-100 ng CK1 FRET biosensor, 100 ng regulator (i.e. N-Flag DDX3X) and 1-10 ng kinase (i.e. N-Flag CK1ε). Either empty pCS2 N-Flag vector or luciferase were used to transfect the same amount of DNA in every well. Generally, the different samples were run in triplicate for each individual experiment. Owing to the varying values for the FRET/CFP ratios based on transfection efficiency, cell density and the time point of analysis, we always set the FRET/CFP ratio of cells only transfected with the CK1 sensor to 1 in order to compare individual experiments. Importantly, the individual figures with the CK1 sensor represent only experiments performed on the same 96-well plate with the same cell density, transfection efficiency and time point.
Where applicable, the small-molecule CK1 inhibitor D4476 (BioVision) was added to the cells 2-4 h prior to the analysis. For each triplicate the respective volume of D4476 (in DMSO) was added together with 1 μl Fugene HD (Promega) to 60 μl serum-free medium. The solution was mixed, incubated for 15 min and added to the cells. […] In the corresponding controls an equal amount of DMSO instead of the inhibitor was added to the medium. Analysis was performed 48-60 h after transfection on an Infinite M1000 PRO microplate reader (Tecan) by exciting CFP with a wavelength of 433 nm and measuring the resulting emission at 460-600 nm in 2 nm increments. Fluorometric spectra were background subtracted with spectra recorded from wells with non-transfected cells. Resulting FRET/CFP ratios were calculated by dividing the intensity values at the respective peaks (478 nm for CFP, 528 nm for YFP) and analyzed essentially as described ([Fritz et al., 2013]). Where indicated, CK1δ/ε-derived peptides were transfected into cells using Metafectene (Biontex) 1 hour before measurements.

[5] = system: DDX3X^414-582 (C-terminal helicase domain); assay: Biolayer interferometry (BLItz); format: binding, human; details: biotin-peptide 100 µM loaded on streptavidin chip; DDX3X^414-582 250 µM; 50 mM Tris-HCl pH 7.5, 10 mM NaCl; 60 s association/dissociation; three recordings
Experimental: Biolayer interferometry was measured on the BLItz system (Pall ForteBIO LLC). High Precision Streptavidin biosensor chips were loaded three times with 100 µM biotin-coupled CK1 peptides in 50 mM Tris-HCl (pH 7.5), 10 mM NaCl for 30 s, followed by a step to block free biotin binding sites with 10 µM biocytin. Association and dissociation times of DDX3X^414-582 (250 µM) were fixed at 60 s. Binding and dissociation curves were recorded three times.

CK1ε = assay: In vitro radioactive kinase assay, CK1ε activity itself (no DDX3X stimulation); format: biochemical, human; details: 0.3 µM peptide; n=3
Experimental: as §1

T1 sequence (O00571 414-582): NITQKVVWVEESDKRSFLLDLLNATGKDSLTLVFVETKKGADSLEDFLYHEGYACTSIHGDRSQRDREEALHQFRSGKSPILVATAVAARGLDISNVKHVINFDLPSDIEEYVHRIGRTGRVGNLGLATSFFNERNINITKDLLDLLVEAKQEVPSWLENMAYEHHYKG

Row | Compound | Binding to His-DDX3X^414-582 (ELISA) (His-DDX3X^414-582 [1]) | effect of peptide on DDX3X stimulation of CK1ε kinase activity [2] | Tm shift / binding by FTS, in words (His-DDX3X^414-582 [3]) | effect of transfected peptide on FRET/CFP ratio (endogenous CK1 activity) [4] | binding to C-terminal helicase domain of DDX3X (BLItz) [5] | size of reduction of CK1 biosensor activity relative to CK1-specific small-molecule inhibitors or DDX3X siRNA [4] | effect of peptide on CK1ε kinase activity itself (CK1ε)
1 | δ-31: CK1δ-derived 15mer peptide (Biotin-SGSGAGEEVAIKLECVKTK) | strongest binding |  |  |  |  |  | 
2 | δ-101: CK1δ-derived 15mer peptide, negative control (Biotin-SGSGSLKTVLLLADQMISR) | showed no binding | did not interfere with the DDX3X stimulation | did not cause Tm shifts |  |  |  | 
3 | biotin-SGSG-APPTPLTPTSHTANT [δ-341] | non-binding |  | did not cause Tm shifts | but not ε-1 or the negative control peptide δ-341, reduced the FRET/CFP ratio |  |  | 
4 | ε-61: CK1ε-derived 15mer peptide (Biotin-SGSGGGVGIPSIKWCGAEG) | strongest binding |  |  |  |  |  | 
5 | ε-241: CK1ε-derived 15mer peptide (Biotin-SGSGCKGYPSEFSTYLNFC; cysteine pairing not given here) | strongest binding |  |  |  |  |  | 
6 | δ-141: CK1δ-derived 15mer peptide (Biotin-SGSGKGNLVYIIDFGLAKK) | strongest binding |  |  |  |  |  | 
7 | CC[C@H](C)[C@H](NC(=O)[C@H](CCCCN)NC(=O)[C@H](CCCNC(=N)N)NC(=O)CNC(=O)[C@H](CC(C)C)NC(=O)[C@H](CCCNC(=N)N)NC(=O)[C@H](Cc1ccc(O)cc1)NC(=O)[C@H](CCCNC(=N)N)NC(=O)[C@H](CC(N)=O)NC(=O)CNC(=O)[C@@H](NC(=O)[C@H](CCCNC(=N)N)NC(=O)[C@H](CC(C)C)NC(=O)[C@H](CCC(=O)O)NC(=O)[C@H](CCSC)NC(=O)CNC(=O)[C@H](CO)NC(=O)CNC(=O)[C@H](CO)NC(=O)CCCC[C@@H]1SC[C@@H]2NC(=O)N[C@@H]21)C(C)C)C(=O)O [δ-1] (HELM PEPTIDE1{[O=C1N[C@H]2[C@H](CS[C@H]2CCCCC(=O)[*:2])N1].S.G.S.G.M.E.L.R.V.G.N.R.Y.R.L.G.R.K.I}$$$$V2.0; C-terminus assumed) | to a lesser extent | impaired the stimulation of CK1ε kinase activity | clearly demonstrated | reduced the FRET/CFP ratio | strongly interacted with δ-1 | less pronounced | without affecting kinase activity itself
8 | CC[C@H](C)[C@H](NC(=O)[C@H](CCCCN)NC(=O)[C@H](CO)NC(=O)[C@H](CCC(=O)O)NC(=O)[C@@H](NC(=O)[C@H](Cc1c[nH]cn1)NC(=O)[C@H](CC(C)C)NC(=O)[C@H](CCC(N)=O)NC(=O)[C@@H]1CCCN1C(=O)[C@H](Cc1c[nH]cn1)NC(=O)[C@H](CCCCN)NC(=O)[C@@H](NC(=O)[C@H](CCCCN)NC(=O)[C@@H](NC(=O)[C@H](CS)NC(=O)CNC(=O)[C@H](CO)NC(=O)CNC(=O)[C@H](CO)NC(=O)CCCC[C@@H]1SC[C@@H]2NC(=O)N[C@@H]21)C(C)C)[C@@H](C)O)[C@@H](C)CC)C(=O)O [δ-41] (HELM PEPTIDE1{[O=C1N[C@H]2[C@H](CS[C@H]2CCCCC(=O)[*:2])N1].S.G.S.G.C.V.K.T.K.H.P.Q.L.H.I.E.S.K.I}$$$$V2.0; C-terminus assumed) | to a lesser extent | impaired the stimulation of CK1ε kinase activity | clearly demonstrated | reduced the FRET/CFP ratio | no binding | less pronounced | without affecting kinase activity itself
9 | δ-91: CK1δ-derived 15mer peptide (Biotin-SGSGDLFNFCSRKFSLKTV) | strongest binding |  |  |  |  |  | 
10 | ε-41: CK1ε-derived 15mer peptide (Biotin-SGSGCVKTKHPQLHIESKF) | to a lesser extent | impaired the stimulation of CK1ε kinase activity | clearly demonstrated | reduced the FRET/CFP ratio |  | less pronounced | without affecting kinase activity itself
11 | δ-231: CK1δ-derived 15mer peptide (Biotin-SGSGKKMSTPIEVLCKGYP) | to a lesser extent |  |  |  |  |  | 
